According to paper PMC3639963, “A New Class of Small Molecule Inhibitor of BMP Signaling” (PLoS ONE, 2013):

Legend:
Experiment in all cases: Nanosyn kinase profiling
Assay type in all cases: biochemical
Settings in all cases: read-out: Percentage inhibition; for inhibition at 0.1 µM: 0.1 µM inhibitor; for inhibition at 1 µM: 1 µM inhibitor
PDGFRβ = molecular target: T1, PDGFRβ (Homo sapiens, UniProt P09619)
T1 construct: purchased Nanosyn (enzymatic panel); SGC in-house recombinant human kinases (DSF panel); Invitrogen (ALK1-6)
T1 sequence (P09619 33-1106): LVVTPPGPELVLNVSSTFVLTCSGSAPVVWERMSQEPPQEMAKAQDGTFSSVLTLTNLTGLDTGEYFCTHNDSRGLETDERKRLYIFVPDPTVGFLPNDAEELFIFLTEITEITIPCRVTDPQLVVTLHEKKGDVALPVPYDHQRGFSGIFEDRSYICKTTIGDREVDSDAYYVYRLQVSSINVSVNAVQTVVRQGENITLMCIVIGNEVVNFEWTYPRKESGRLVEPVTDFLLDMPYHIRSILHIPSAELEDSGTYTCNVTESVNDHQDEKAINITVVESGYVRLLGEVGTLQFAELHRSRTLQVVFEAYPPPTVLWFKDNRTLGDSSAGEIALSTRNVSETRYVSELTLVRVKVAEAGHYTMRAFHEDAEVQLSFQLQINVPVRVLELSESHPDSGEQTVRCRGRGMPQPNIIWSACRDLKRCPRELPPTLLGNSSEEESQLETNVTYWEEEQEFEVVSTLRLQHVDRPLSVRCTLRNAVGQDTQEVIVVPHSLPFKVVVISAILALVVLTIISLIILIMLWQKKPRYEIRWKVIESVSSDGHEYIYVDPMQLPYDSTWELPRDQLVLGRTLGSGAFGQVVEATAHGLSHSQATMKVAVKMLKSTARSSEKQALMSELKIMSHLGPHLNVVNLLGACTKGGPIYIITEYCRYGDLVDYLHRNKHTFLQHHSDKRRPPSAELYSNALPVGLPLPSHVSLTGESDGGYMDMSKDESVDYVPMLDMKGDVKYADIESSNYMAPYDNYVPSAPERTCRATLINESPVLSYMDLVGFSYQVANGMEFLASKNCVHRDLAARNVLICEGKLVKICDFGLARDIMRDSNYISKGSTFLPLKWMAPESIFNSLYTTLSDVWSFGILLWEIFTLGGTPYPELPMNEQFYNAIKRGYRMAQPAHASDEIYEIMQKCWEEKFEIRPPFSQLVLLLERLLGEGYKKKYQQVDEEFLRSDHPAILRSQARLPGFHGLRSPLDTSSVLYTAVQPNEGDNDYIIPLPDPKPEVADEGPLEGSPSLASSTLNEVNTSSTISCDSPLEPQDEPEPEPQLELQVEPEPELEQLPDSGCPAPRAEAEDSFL
Protocol: (§1) Percentage inhibition was determined for each kinase at both 0.1 µM and 1 µM inhibitor concentration (supplemental Table S2). […]. […]. When visualized on a kinase phylogenetic tree, these were primarily clustered within the receptor tyrosine kinases (TKs) as well as the calmodulin-dependent kinases (CAMKs) (Figure 2C).
(§2) Inhibitor selectivity profiling against 200 human kinases at 0.1 and 1 µM inhibitor concentration was performed by Nanosyn (www.nanosyn.com).

PAR1Bα = molecular target: T2, PAR1Bα (Homo sapiens, UniProt Q7KZI7)
T2 construct: purchased Nanosyn (enzymatic panel); SGC in-house recombinant human kinases (DSF panel); Invitrogen (ALK1-6)
T2 sequence (Q7KZI7 1-725 isoform Q7KZI7-4): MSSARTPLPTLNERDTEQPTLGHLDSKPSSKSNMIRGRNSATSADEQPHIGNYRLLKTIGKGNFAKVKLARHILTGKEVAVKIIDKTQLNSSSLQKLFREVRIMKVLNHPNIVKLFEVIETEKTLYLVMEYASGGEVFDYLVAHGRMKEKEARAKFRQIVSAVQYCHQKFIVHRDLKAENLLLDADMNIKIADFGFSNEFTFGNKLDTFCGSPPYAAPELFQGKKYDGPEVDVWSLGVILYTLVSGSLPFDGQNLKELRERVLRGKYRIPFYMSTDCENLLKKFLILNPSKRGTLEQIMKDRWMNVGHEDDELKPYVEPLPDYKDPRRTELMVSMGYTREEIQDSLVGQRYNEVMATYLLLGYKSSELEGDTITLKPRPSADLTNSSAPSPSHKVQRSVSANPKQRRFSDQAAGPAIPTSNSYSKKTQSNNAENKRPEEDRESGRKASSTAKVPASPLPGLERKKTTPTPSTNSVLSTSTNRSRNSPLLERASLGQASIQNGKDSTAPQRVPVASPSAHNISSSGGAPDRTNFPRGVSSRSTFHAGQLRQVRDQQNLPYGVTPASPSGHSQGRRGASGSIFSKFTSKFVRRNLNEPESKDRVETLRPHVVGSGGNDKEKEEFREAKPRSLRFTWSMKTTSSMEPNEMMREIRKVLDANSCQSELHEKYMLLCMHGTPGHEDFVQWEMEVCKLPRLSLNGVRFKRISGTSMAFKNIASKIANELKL
Protocol: as §1, §2

TBK1 = molecular target: T3, TBK1 (Homo sapiens, UniProt Q9UHD2)
T3 construct: purchased Nanosyn (enzymatic panel); SGC in-house recombinant human kinases (DSF panel); Invitrogen (ALK1-6)
T3 sequence (Q9UHD2 1-729): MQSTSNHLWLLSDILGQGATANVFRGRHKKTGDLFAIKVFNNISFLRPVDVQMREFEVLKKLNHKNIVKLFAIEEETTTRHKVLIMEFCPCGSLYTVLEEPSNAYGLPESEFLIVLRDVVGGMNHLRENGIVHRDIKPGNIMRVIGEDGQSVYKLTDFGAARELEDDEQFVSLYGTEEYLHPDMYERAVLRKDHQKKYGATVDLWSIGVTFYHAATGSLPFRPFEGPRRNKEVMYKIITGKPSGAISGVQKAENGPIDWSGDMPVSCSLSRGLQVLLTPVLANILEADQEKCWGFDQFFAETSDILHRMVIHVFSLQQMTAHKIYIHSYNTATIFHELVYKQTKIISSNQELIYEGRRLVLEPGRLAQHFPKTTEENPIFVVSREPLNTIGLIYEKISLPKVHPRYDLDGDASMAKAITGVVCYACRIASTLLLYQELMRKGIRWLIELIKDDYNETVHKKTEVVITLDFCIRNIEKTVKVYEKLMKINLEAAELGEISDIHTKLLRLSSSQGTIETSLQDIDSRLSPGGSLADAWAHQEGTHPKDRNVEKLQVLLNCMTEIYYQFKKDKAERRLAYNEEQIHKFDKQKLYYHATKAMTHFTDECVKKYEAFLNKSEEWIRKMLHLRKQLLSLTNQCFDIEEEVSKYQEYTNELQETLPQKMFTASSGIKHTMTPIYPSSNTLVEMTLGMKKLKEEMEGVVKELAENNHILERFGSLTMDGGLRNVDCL
Protocol: as §1, §2

EPHB3 = molecular target: T4, EPHB3 (Homo sapiens, UniProt P54753)
T4 construct: purchased Nanosyn (enzymatic panel); SGC in-house recombinant human kinases (DSF panel); Invitrogen (ALK1-6)
T4 sequence (P54753 34-998): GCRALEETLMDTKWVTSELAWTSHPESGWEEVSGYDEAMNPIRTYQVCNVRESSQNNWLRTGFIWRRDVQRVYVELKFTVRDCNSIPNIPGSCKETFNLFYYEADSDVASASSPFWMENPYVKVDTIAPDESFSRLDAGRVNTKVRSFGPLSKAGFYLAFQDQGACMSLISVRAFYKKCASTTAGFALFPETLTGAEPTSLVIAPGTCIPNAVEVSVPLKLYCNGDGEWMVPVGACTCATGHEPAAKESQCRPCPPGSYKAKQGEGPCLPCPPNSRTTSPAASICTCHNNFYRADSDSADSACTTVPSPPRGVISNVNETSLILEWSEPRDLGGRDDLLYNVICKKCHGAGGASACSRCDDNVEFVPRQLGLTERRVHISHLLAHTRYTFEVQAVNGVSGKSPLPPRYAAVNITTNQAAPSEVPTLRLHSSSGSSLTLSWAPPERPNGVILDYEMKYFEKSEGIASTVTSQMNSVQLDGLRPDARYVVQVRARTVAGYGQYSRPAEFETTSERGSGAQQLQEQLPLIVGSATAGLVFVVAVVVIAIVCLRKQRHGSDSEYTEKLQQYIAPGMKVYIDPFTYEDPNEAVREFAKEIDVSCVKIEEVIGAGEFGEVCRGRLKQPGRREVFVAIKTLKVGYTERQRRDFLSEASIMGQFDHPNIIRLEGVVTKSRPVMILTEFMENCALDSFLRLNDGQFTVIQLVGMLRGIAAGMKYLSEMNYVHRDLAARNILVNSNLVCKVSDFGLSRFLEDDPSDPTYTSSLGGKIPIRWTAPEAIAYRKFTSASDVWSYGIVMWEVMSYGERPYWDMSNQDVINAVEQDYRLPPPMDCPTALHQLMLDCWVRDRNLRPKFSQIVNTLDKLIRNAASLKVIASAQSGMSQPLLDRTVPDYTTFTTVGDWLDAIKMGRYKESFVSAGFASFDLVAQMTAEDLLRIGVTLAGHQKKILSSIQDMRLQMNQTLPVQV
Protocol: as §1, §2

TNK2 = molecular target: T5, TNK2 (Homo sapiens, UniProt Q07912)
T5 construct: purchased Nanosyn (enzymatic panel); SGC in-house recombinant human kinases (DSF panel); Invitrogen (ALK1-6)
T5 sequence (Q07912 whole entry): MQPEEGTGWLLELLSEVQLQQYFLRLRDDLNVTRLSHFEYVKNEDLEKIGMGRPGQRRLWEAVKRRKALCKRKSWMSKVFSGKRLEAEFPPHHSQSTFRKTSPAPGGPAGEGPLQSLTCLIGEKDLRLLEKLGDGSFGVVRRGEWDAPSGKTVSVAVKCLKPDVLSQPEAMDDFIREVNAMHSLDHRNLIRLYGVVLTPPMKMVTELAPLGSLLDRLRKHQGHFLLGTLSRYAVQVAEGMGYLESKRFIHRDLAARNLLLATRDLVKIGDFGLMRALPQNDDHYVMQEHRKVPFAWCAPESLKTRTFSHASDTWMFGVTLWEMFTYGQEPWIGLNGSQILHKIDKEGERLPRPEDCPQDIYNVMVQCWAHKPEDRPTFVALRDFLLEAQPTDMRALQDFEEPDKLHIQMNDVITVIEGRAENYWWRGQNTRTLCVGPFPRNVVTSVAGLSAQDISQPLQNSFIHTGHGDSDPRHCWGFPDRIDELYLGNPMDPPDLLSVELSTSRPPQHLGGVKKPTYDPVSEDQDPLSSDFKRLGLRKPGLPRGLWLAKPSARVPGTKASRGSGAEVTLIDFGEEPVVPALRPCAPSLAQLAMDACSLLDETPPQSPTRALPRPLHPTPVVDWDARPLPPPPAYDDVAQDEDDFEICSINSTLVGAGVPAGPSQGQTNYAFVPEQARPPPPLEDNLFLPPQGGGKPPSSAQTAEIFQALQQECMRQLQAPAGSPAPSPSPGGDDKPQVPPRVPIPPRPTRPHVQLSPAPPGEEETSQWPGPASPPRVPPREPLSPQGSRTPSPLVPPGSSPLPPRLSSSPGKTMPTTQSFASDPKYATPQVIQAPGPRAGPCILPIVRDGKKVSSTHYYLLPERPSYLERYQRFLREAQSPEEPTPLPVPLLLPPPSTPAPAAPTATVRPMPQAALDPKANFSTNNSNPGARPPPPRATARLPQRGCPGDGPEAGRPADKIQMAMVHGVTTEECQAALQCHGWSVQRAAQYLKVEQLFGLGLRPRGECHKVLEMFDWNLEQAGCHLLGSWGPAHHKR
Protocol: as §1, §2

MRCKβ = molecular target: T6, MRCKβ (Homo sapiens, UniProt Q9Y5S2)
T6 construct: purchased Nanosyn (enzymatic panel); SGC in-house recombinant human kinases (DSF panel); Invitrogen (ALK1-6)
Protocol: as §1, §2

AURKC = molecular target: T7, AURKC (Homo sapiens, UniProt Q9UQB9)
T7 construct: purchased Nanosyn (enzymatic panel); SGC in-house recombinant human kinases (DSF panel); Invitrogen (ALK1-6)
T7 sequence (Q9UQB9 1-309): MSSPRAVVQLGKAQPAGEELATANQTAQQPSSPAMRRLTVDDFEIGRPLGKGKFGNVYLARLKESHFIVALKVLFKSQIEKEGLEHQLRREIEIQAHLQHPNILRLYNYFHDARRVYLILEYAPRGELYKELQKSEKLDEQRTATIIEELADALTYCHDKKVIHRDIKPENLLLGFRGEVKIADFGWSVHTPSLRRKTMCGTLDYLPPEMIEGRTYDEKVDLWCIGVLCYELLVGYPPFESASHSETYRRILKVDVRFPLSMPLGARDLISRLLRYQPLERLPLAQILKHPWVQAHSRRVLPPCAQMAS
Protocol: as §1, §2

PI4-K-β = molecular target: T8, PI4-K-β (Homo sapiens, UniProt Q9UBF8)
T8 construct: purchased Nanosyn (enzymatic panel); SGC in-house recombinant human kinases (DSF panel); Invitrogen (ALK1-6)
T8 sequence (Q9UBF8 whole entry): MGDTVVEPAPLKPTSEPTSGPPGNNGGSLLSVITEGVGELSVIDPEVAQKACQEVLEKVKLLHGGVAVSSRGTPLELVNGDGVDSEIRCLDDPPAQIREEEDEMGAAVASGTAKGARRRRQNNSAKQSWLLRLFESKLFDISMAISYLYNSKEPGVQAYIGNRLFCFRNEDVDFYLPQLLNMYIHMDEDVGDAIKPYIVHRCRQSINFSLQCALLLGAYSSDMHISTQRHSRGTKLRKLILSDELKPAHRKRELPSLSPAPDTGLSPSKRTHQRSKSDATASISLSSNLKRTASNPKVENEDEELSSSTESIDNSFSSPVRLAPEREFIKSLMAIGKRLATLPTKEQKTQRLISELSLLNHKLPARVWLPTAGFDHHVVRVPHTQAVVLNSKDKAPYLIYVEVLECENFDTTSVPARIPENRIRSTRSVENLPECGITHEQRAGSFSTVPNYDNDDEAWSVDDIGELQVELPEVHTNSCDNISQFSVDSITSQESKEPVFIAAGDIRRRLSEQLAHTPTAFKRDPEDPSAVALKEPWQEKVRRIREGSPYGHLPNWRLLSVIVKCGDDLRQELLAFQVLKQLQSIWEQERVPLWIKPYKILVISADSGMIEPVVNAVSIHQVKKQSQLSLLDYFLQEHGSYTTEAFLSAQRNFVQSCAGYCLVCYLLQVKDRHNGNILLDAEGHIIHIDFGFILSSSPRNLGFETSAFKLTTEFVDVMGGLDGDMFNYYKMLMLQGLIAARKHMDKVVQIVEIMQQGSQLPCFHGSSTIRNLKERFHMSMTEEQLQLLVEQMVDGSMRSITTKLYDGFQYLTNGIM
Protocol: as §1, §2

PAK1 = molecular target: T9, PAK1 (Homo sapiens, UniProt Q13153)
T9 construct: purchased Nanosyn (enzymatic panel); SGC in-house recombinant human kinases (DSF panel); Invitrogen (ALK1-6)
T9 sequence (Q13153 whole entry): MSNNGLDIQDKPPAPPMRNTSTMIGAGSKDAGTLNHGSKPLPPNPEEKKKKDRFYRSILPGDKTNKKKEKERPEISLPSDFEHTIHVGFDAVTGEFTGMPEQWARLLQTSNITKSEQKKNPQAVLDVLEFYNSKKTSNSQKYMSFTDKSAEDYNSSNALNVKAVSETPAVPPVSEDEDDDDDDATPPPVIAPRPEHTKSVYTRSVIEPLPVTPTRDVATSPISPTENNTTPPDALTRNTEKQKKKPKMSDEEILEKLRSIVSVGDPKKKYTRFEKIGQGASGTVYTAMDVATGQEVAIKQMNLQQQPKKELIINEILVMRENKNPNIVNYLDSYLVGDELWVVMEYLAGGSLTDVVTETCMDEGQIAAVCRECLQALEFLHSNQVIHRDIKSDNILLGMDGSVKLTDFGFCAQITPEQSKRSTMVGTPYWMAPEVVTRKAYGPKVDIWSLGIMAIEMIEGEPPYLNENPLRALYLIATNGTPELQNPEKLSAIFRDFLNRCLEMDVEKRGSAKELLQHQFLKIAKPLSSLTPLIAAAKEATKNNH
Protocol: as §1, §2

FGFR2 = molecular target: T10, FGFR2 (Homo sapiens, UniProt P21802)
T10 construct: purchased Nanosyn (enzymatic panel); SGC in-house recombinant human kinases (DSF panel); Invitrogen (ALK1-6)
T10 sequence (P21802 22-821): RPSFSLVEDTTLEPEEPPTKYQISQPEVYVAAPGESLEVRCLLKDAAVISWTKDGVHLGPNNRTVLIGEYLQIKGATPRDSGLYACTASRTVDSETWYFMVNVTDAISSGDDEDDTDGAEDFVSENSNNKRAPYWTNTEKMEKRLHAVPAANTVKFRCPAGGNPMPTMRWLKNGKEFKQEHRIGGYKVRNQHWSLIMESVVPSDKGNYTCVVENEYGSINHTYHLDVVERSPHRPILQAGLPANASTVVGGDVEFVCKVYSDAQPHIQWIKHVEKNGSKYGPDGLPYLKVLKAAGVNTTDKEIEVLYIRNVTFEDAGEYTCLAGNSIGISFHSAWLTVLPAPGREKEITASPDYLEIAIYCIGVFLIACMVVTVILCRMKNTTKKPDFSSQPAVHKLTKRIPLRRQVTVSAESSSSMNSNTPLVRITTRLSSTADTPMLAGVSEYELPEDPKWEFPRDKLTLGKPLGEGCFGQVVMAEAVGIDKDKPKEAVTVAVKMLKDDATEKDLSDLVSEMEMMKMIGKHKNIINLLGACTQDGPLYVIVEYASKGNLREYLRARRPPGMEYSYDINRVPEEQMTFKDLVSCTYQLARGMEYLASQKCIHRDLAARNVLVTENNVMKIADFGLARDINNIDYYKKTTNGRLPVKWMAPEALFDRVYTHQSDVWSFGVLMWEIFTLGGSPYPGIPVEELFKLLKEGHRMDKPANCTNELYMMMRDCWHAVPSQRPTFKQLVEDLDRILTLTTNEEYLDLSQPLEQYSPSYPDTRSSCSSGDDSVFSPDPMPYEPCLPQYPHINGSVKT
Protocol: as §1, §2

PAK6 = molecular target: T11, PAK6 (Homo sapiens, UniProt Q9NQU5)
T11 construct: purchased Nanosyn (enzymatic panel); SGC in-house recombinant human kinases (DSF panel); Invitrogen (ALK1-6)
Protocol: as §1, §2

DYRK1B = molecular target: T12, DYRK1B (Homo sapiens, UniProt Q9Y463)
T12 construct: purchased Nanosyn (enzymatic panel); SGC in-house recombinant human kinases (DSF panel); Invitrogen (ALK1-6)
Protocol: as §1, §2

| Compound | inhibition at 0.1 µM (PDGFRβ) | inhibition at 1 µM (PDGFRβ) | inhibition at 0.1 µM (PAR1Bα) | inhibition at 1 µM (PAR1Bα) | inhibition at 0.1 µM (TBK1) | inhibition at 1 µM (TBK1) | inhibition at 0.1 µM (EPHB3) | inhibition at 1 µM (EPHB3) | inhibition at 0.1 µM (TNK2) | inhibition at 1 µM (TNK2) | inhibition at 0.1 µM (MRCKβ) | inhibition at 1 µM (MRCKβ) | inhibition at 0.1 µM (AURKC) | inhibition at 1 µM (AURKC) | inhibition at 0.1 µM (PI4-K-β) | inhibition at 1 µM (PI4-K-β) | inhibition at 0.1 µM (PAK1) | inhibition at 1 µM (PAK1) | inhibition at 0.1 µM (FGFR2) | inhibition at 1 µM (FGFR2) | other results |
| --- | --- | --- | --- | --- | --- | --- | --- | --- | --- | --- | --- | --- | --- | --- | --- | --- | --- | --- | --- | --- | --- |
| COc1cc(-c2cc(-c3cccc(O)c3)cnc2N)cc(OC)c1OC [K02288, 3-[6-amino-5-(3,4,5-trimethoxy-phenyl)-pyridin-3-yl]-phenol] | 7.7% | 43% | 2.3% | 7% | 1.5% | 3.7% | -2% | -1% | 3.6% | 31% | 0.6% | 2% | -1% | 3.2% | 0.8% | -4% | 0% | 0.6% | 0.3% | 1.1% | inhibition at 0.1 µM (PAK6): 0.8%; inhibition at 1 µM (PAK6): 1.9%; inhibition at 0.1 µM (DYRK1B): 2.6%; inhibition at 1 µM (DYRK1B): 6% |
| c1ccc2c(-c3cnn4cc(-c5ccc(N6CCNCC6)cc5)cnc34)ccnc2c1 [LDN-193189] | 39% | 75% | 6.9% | 43% | 4.5% | 16% | 5.6% | 4.3% | 2% | 10% | 0% | 2.1% | 4.2% | 25% | 3.5% | 5.8% | 4.3% | 4.9% | 5% | 18% | inhibition at 0.1 µM (PAK6): 8.8%; inhibition at 1 µM (PAK6): 5.1%; inhibition at 0.1 µM (DYRK1B): 7.1%; inhibition at 1 µM (DYRK1B): 41% |
